Each compound was assayed against T1, gamma-secretase (partially purified extract of IMR-32 cell membranes) (Homo sapiens, UniProt P49768) (assay: Gamma-secretase APP enzyme assay (cleavage of MBP-C125 Swe at the Aβ40 site, sandwich ELISA)). Conditions: MBP-C125swe substrate, IMR-32 membrane extract, 2 h at 37° C., Aβ40 site cleavage product by ELISA; read-out: γAPP (inhibition, IC50).
T1 construct: a partially purified extract of IMR-32 cell membranes as the gamma-secretase enzyme preparation; endogenous in cells; host or cells: IMR-32 cell membranes, partially purified extract
Assay type: biochemical
Description: The gamma-secretase APP enzyme assay was designed to measure the specific proteolytic cleavage of an APP substrate (MBP-C125 Swe fusion protein) at the Aβ40 site. […] This assay involved two steps beginning with the enzymatic reaction generating a cleavage product that was captured with an immobilized antibody specific for the neo-epitope Aβ40 site. The captured cleavage product was then detected in a sandwich ELISA assay with a biotinylated reporter antibody that is specific to Aβ (17-28). Streptavidin-linked alkaline phosphatase was then added that would generate a fluorescent signal proportional to the amount of cleavage product.
This warmed solution of BigCHAPS(N,N-Bis(3-D-gluconamidopropyl)cholamide) detergent was used to dissolve Brain Extract Type-V (lipid containing a minimum of 40% phosphatidylethanolamine) from Sigma (St. Louis, Mo.) to a concentration of 8 mg/ml. This solution containing BigCHAPS and lipid at 8 mg/ml is then diluted to 0.53 mg/ml lipid with a pre-warmed solution of Hepes and sodium chloride. This final solution containing Hepes buffer, sodium chloride, BigCHAPS detergent and lipid is used to create working solutions of both gamma-secretase (25 Units) and the MBP-C125 substrate (0.05 mg/ml).
Gamma-secretase was then added to a 96-well micro-titre plate and then incubated with various concentrations of inhibitor for 30 minutes at 37° C. MBPC125 substrate was then added to initiate the reaction that would run for two hours at 37° C. The reaction was quenched with the addition of SDS to a final concentration of 0.1% and then 100 μl of the reaction mixture was transferred to a capture ELISA plate and incubated overnight at 4° C. Detection of the cleavage product was performed using a standard sandwich ELISA assay and quantified using a six point standard curve.
In the case of `CC1c2[nH]ncc2C2CCCC1N2S(=O)(=O)c1ccc(Cl)cc1` (stereo not shown) [Example 11, 12-(4-Chloro-benzenesulfonyl)-7-methyl-4,5,12-triaza-tricyclo[6.3.1.0^2,6]dodeca-2(6),3-diene], the IC50 is reported as < 100 nM. `O=S(=O)(c1ccc(Cl)cc1)N1C2CCCC1c1cnn(C3CCCCC3)c1C2` (stereo not shown) [Example 66, 12-(4-Chloro-benzenesulfonyl)-5-cyclohexyl-4,5,12-triaza-tricyclo[6.3.1.0^2,6]dodeca-2(6),3-diene] was tested, and the IC50 was 250 to 500 nM. With `CC(C)C(=O)n1cc2c(n1)CC1CCCC2N1S(=O)(=O)c1ccc(Cl)cc1` (stereo not shown) [Example 84, 1-[12-(4-Chloro-benzenesulfonyl)-4,5,12-triaza-tricyclo[6.3.1.0^2,6]dodeca-2,5-dien-4-yl]-2-methyl-propan-1-one] the IC50 was < 100 nM. For `Cc1n[nH]c2c1C1CCCC(C2)N1S(=O)(=O)c1ccc(Cl)cc1` (stereo not shown) [12-(4-Chloro-benzenesulfonyl)-3-methyl-4,5,12-triaza-tricyclo[6.3.1.0^2,6]dodeca-2(6),3-diene], the IC50 was < 100 nM. In the case of `C=CCOC(=O)n1cc2c(n1)CC1CCCC2N1S(=O)(=O)c1ccc(Cl)cc1` (stereo not shown) [Example 86, 12-(4-Chloro-benzenesulfonyl)-4,5,12-triaza-tricyclo[6.3.1.0^2,6]dodeca-2,5-diene-4-carboxylic acid allyl ester], the IC50 is reported as 250 to 500 nM. In the case of `Nc1n[nH]c2c1C1CCCC(C2)N1S(=O)(=O)c1ccc(Cl)cc1` (stereo not shown) [Example 97, 12-(4-Chloro-benzenesulfonyl)-4,5,12-triaza-tricyclo[6.3.1.0^2,6]dodeca-2(6),3-dien-3-ylamine], the IC50 is reported as < 100 nM. `O=S(=O)(c1ccc(Cl)cc1)N1C2CCCC1c1c(Cl)n[nH]c1C2` (stereo not shown) [Example 91, 3-Chloro-12-(4-chloro-benzenesulfonyl)-4,5,12-triaza-tricyclo[6.3.1.0^2,6]dodeca-2(6),3-diene] showed an IC50 of 250 to 500 nM. In the case of “N-[12-(4-Chloro-benzenesulfonyl)-4,5,12-triaza-tricyclo[6.3.1.0^2,6]dodeca-2(6),3-dien-7-yl]-acetamide [Example 98]”, the IC50 is reported as < 100 nM. `O=S(=O)(c1ccc(Cl)cc1)N1C2CCCC1c1c(C(F)(F)F)n[nH]c1C2` (stereo not shown) [Example 82, 12-(4-Chloro-benzenesulfonyl)-3-trifluoromethyl-4,5,12-triaza-tricyclo-[6.3.1.0^2,6]dodeca-2(6),3-diene] was tested, and the IC50 was < 100 nM. `Nc1ncc2c(n1)CC1CCCC2N1S(=O)(=O)c1ccc(Cl)cc1` (stereo not shown) [Example 87, 13-(4-Chloro-benzenesulfonyl)-4,6,13-triaza-tricyclo[7.3.1.0^2,7]trideca-2(7),3,5-trien-5-ylamine] was tested, and the IC50 was 100 to 250 nM. With `O=S(=O)(c1ccc(Cl)cc1)N1C2CCC1c1cn[nH]c1C2` (stereo not shown) [Example 79, 11-(4-Chloro-benzenesulfonyl)-4,5,11-triaza-tricyclo[6.3.1.0^2,6]undeca-2(6),3-diene] the IC50 was < 100 nM. With `O=S(=O)(c1ccc(Cl)cc1)N1C2CCCC1c1c(C(F)F)n[nH]c1C2` (stereo not shown) [12-(4-Chloro-benzenesulfonyl)-3-difluoromethyl-4,5,12-triaza-tricyclo[6.3.1.0^2,6]dodeca-2(6),3-diene] the IC50 was < 100 nM. With `CCC1c2[nH]ncc2C2CCCC1N2S(=O)(=O)c1ccc(Cl)cc1` (stereo not shown) [Example 14, 12-(4-Chloro-benzenesulfonyl)-7-ethyl-4,5,12-triaza-tricyclo[6.3.1.0^2,6]dodeca-2(6),3-diene] the IC50 was < 100 nM. In the case of `CC(=O)OC(C)(C)C(=O)n1cc2c(n1)CC1CCCC2N1S(=O)(=O)c1ccc(Cl)cc1` (stereo not shown) [Example 85, Acetic acid 2-[12-(4-chloro-benzenesulfonyl)-4,5,12-triaza-tricyclo[6.3.1.0^2,6]dodeca-2,5-dien-4-yl]-1,1-dimethyl-2-oxo-ethyl ester], the IC50 is reported as < 100 nM. In the case of `O=S(=O)(c1ccc(Cl)s1)N1C2CCCC1c1cn[nH]c1C2` (stereo not shown) [Example 8, 12-(5-Chloro-thiophene-2-sulfonyl)-4,5,12-triaza-tricyclo[6.3.1.0^2,6]dodeca-2(6),3-diene], the IC50 is reported as < 100 nM. `CC(=O)n1cc2c(n1)CC1CCCC2N1S(=O)(=O)c1ccc(Cl)cc1` (stereo not shown) [Example 83, 1-[12-(4-Chloro-benzenesulfonyl)-4,5,12-triaza-tricyclo[6.3.1.0^2,6]dodeca-2,5-dien-4-yl]-ethanone] was tested, and the IC50 was < 100 nM. In the case of `O=S(=O)(c1ccc(Cl)cc1)N1C2CCCC1C(O)c1[nH]ncc12` (stereo not shown) [Example 36, 12-(4-Chloro-benzenesulfonyl)-4,5,12-triaza-tricyclo[6.3.1.0^2,6]dodeca-2(6),3-dien-7-ol], the IC50 is reported as < 100 nM. With `O=S(=O)(c1ccc(Cl)cc1)N1C2CCCC1c1cnc3cc(-c4ccccc4)nn3c1C2` (stereo not shown) [Example 63, 16-(4-Chloro-benzenesulfonyl)-7-phenyl-4,8,9,16-tetraaza-tetracyclo-[10,3,1,0^2,10,0^5,9]-hexadeca-2(10),3,5,7-tetraene] the IC50 was 250 to 500 nM. In the case of `Nc1n[nH]c2c1C1CCCC(C2)N1S(=O)(=O)c1ccc(Cl)cc1` (stereo not shown) [Example 94, 12-(4-Chloro-benzenesulfonyl)-4,5,12-triaza-tricyclo[6.3.1.0^2,6]dodeca-2(6),3-dien-3-ylamine], the IC50 is reported as < 100 nM. Work on `O=S(=O)(c1ccc(Cl)cc1)N1C2CCCC1c1c(C(F)(F)F)n[nH]c1C2` (stereo not shown) [Example 89, 12-(4-Chloro-benzenesulfonyl)-3-trifluoromethyl-4,5,12-triaza-tricyclo-[6.3.1.0^2,6]dodeca-2(6),3-diene] yielded an IC50 of 100 to 250 nM. In the case of `Cn1ncc2c1CC1CCCC2N1S(=O)(=O)c1ccc(Cl)cc1` (stereo not shown) [Example 53, 12-(4-Chloro-benzenesulfonyl)-5-methyl-4,5,12-triaza-tricyclo[6.3.1.0^2,6]dodeca-2(6),3-diene], the IC50 is reported as 250 to 500 nM. `O=S(=O)(c1ccc(Cl)cc1)N1C2CCCC1c1cnc3c(-c4ccccc4)cnn3c1C2` (stereo not shown) [Example 62, 16-(4-Chloro-benzenesulfonyl)-6-phenyl-4,8,9,16-tetraaza-tetracyclo-[10,3,1,0^2,10,0^5,9]-hexadeca-2(10),3,5,7-tetraene] gave an IC50 of 100 to 250 nM.

Reference: patent US7345056B2, “Bridged N-cyclic sulfonamido inhibitors of gamma secretase” (Elan Pharmaceuticals, Inc., priority 2005, dated 2008)
